# Target: Nurr1 (nuclear receptor related 1 protein) (Homo sapiens, UniProt P43354)
# Experiment: tryptophan fluorescence quenching
# Format: binding
# Nurr1 (nuclear receptor related 1 protein), sequence (P43354 352-598): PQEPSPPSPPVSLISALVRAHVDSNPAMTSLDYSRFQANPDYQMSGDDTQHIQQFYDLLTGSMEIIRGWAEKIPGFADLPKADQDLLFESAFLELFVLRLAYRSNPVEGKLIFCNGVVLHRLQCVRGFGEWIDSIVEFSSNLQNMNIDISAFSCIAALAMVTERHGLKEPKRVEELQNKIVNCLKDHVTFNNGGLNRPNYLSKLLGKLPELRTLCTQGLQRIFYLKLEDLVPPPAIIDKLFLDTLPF
row,SMILES,Kd [µM]
1,"CCCCCCCC/C=C\CCCCCCCC(=O)O [OA, oleic acid]",59 ± 15
2,"CCCCC/C=C\C/C=C\CCCCCCCC(=O)O [LA, linoleic acid]",101 ± 13

# Source: article PMC6318021 (Structure (London, England : 1993), 2018)
